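Growth conditions: 96-well plates. Treatment: test compound, 48 hours, 5 concentrations. Analysis: linear interpolation between bracketing concentrations; unreached endpoints set to highest concentration. GI50: concentration for 50% inhibition of growth. At the TGI there is no net growth.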
Key:
Experiment in all cases: NCI anticancer screen, dose series, 48 h
MOLT-4 leukemia = system: MOLT-4 leukemia
SF-539 CNS = system: SF-539 CNS
HL-60(TB) leukemia = system: HL-60(TB) leukemia
A549 NSCLC = system: A549 NSCLC
M14 melanoma = system: M14 melanoma
OVCAR-4 ovarian = system: OVCAR-4 ovarian
SR leukemia = system: SR leukemia
786-0 renal = system: 786-0 renal
A498 renal = system: A498 renal
ACHN renal = system: ACHN renal

SMILES | TGI (MOLT-4 leukemia) [µM] | TGI (SF-539 CNS) [µM] | TGI (HL-60(TB) leukemia) [µM] | TGI (A549 NSCLC) [µM] | TGI (M14 melanoma) [µM] | TGI (OVCAR-4 ovarian) [µM] | TGI (SR leukemia) [µM] | TGI (786-0 renal) [µM] | TGI (A498 renal) [µM] | TGI (ACHN renal) [µM] | GI50 (MOLT-4 leukemia) [µM] | GI50 (SF-539 CNS) [µM] | GI50 (HL-60(TB) leukemia) [µM] | GI50 (A549 NSCLC) [µM] | GI50 (M14 melanoma) [µM] | GI50 (OVCAR-4 ovarian) [µM] | GI50 (SR leukemia) [µM] | GI50 (786-0 renal) [µM] | GI50 (A498 renal) [µM] | GI50 (ACHN renal) [µM]
COc1ccc(C(c2ccccc2)(c2ccc(OC)cc2)N2C(=O)NC3C(CCCCC(=O)NCCCCCCOP(OCCC#N)N(C(C)C)C(C)C)SCC32)cc1 (stereo unspecified) | 28.5 | 28.1 | 32.1 | 41.8 | 34.2 | 40 | 27.2 | 35.9 | 35 | 29.9 | – | – | – | – | – | – | – | – | – | –
O=C(CCC(=O)Nc1ccc(Cl)c(Cl)c1)Cc1nc2ccccc2o1 | > 100 | > 100 | > 100 | > 100 | > 100 | > 100 | > 100 | > 100 | > 100 | > 100 | – | – | – | – | – | – | – | – | – | –
CC(C)(C)C(=O)OCOP(=O)(NCc1ccccc1)C1CCCN(O)C1=O (stereo unspecified) | 14.4 | 16.5 | 13.7 | > 100 | 18.7 | 71.9 | > 100 | > 100 | 9.18 | 67.4 | 2.61 | 3.2 | 3.59 | 2.79 | 2.91 | 2.1 | 0.985 | 3.15 | 0.692 | 2.5
Cc1nc([N+](=O)[O-])cn1-c1nc2ccccn2c1[N+](=O)[O-] | – | > 100 | – | > 100 | > 100 | > 100 | > 100 | > 100 | > 100 | > 100 | – | – | – | – | – | – | – | – | – | –
O=C(C(=O)c1cc2ccccc2[nH]1)c1cc2ccccc2[nH]1 | > 347 | > 347 | > 347 | > 347 | > 347 | 299 | > 110 | > 347 | > 347 | > 347 | – | – | – | – | – | – | – | – | – | –
Cc1cc2c(C(=O)NC[C@H](C)c3ccccc3)c(O)c(O)cc2c(O)c1-c1c(C)cc2c(C(=O)NC[C@H](C)c3ccccc3)c(O)c(O)cc2c1O | 7.8 | 1.02 | 8.57 | 3.23 | 5.72 | 8.3 | 4.51 | 1.8 | 7.54 | 3.83 | 0.199 | 0.242 | 0.901 | 0.0693 | 0.438 | 0.446 | 0.376 | 0.368 | 0.316 | 0.296
OCC1C(OCc2ccccc2)C(OCc2ccccc2)C(OCc2ccccc2)CN1Cc1ccccc1 (stereo unspecified) | > 100 | > 100 | – | > 100 | > 100 | > 100 | > 100 | > 100 | – | 17.9 | – | – | – | – | – | – | – | – | – | –
COc1ccccc1Nc1cc(O)c2c(=O)cc(-c3ccccc3)oc2c1 | > 100 | 10.4 | 34.9 | > 100 | – | 47.8 | > 100 | 27 | 13.9 | 13 | 4.08 | 2.73 | 2.79 | 5.16 | – | 4.49 | 0.529 | 5.15 | 3.08 | 3.38
O=C1NC(=C(Cl)Cl)/C(=N/S(=O)(=O)N2CCCCC2)N1 | – | 5.55 | 4.52 | 22.2 | 4.54 | 3.47 | 3.89 | 7.74 | 25.4 | 3.42 | – | 2.2 | 1.86 | 6.85 | 2.06 | 1.8 | 1.5 | 2.79 | 12.4 | 1.96
O=c1c2ccccc2sc2c(NCCCNCCO)nc3ccccc3c12 | 3.32 | 3.23 | 3.92 | 3.41 | 3.33 | 6.37 | 4.55 | 2.92 | – | 2.81 | 1.26 | 1.65 | 1.92 | 1.53 | 1.71 | 2.17 | 1.6 | 1.49 | – | 1.39
COC1CCC(OS(C)(=O)=O)C(CO)O1 (stereo unspecified) | > 100 | > 100 | > 100 | > 100 | > 100 | – | > 100 | > 100 | – | > 100 | – | – | – | – | – | – | – | – | – | –
COc1ccc(Nc2nc3cc(N)cc(N)c3nc2-c2ccccc2)cc1 | – | – | > 100 | > 100 | 36.3 | 22.1 | > 100 | 31.2 | – | 43.3 | – | – | 34.4 | 27.8 | 17.6 | 10.4 | 19.2 | 16 | – | 15.3
COc1cc(/C=C/c2cc(/C=C/c3ccc(O)c(OC)c3)n(C(=O)c3ccc(Cl)cc3)n2)ccc1O | 11.9 | 6.07 | 7.62 | 12.8 | 15.2 | 34.9 | – | 16.2 | 9.6 | 13.7 | 1.64 | 1.24 | 1.58 | 3.3 | 1.5 | 2.02 | – | 2.55 | 2.71 | 1.03
O=C(O)CCNCC(=O)O | > 100 | > 100 | > 100 | > 100 | > 100 | – | > 100 | > 100 | > 100 | > 100 | – | – | – | – | – | – | – | – | – | –
C/C(=N\N=C(N)N)C(CN1CCCCC1)C(c1ccccc1)c1c(O)c2ccccc2oc1=O (stereo unspecified) | – | > 100 | > 100 | > 100 | > 100 | > 100 | > 100 | > 100 | > 100 | > 100 | – | – | – | – | – | – | – | – | – | –
CCOC(=O)c1cc(C(=O)c2ccc(OC)cc2)n2ccc(/C=C/c3cc[n+](CC(=O)c4ccc(OC)cc4)cc3)cc12 | 5.53 | – | 4.24 | > 100 | 3.8 | 2.94 | 2.29 | 3.94 | – | – | 1.91 | – | 1.78 | 3.96 | 1.77 | 1.26 | 0.367 | 1.98 | – | –
COc1cc2cc(OC(C)=O)c3cc4c(cc3c2c(OC)c1OC)OCO4 | > 100 | > 100 | > 100 | > 100 | > 100 | > 100 | – | > 100 | > 100 | > 100 | – | – | – | – | – | – | – | – | – | –

Reference: PubChem BioAssay (NCI)
